From ChEMBL document CHEMBL4392856, “Synthesis of diphenoxyadamantane alkylamines with pharmacological interest” (Bioorg Med Chem Lett, 2019)
Converted amounts (≈) assume the structure as drawn.

Key:
[1] = test system: Mycobacterium tuberculosis; assay: Antimycobacterial activity against Mycobacterium tuberculosis H37Rv assessed as inhibition of parasite growth incubated for 6 days by REMA method; assay type: functional; details: 144 h
[2] = test system: Mycobacterium tuberculosis; assay: Antimycobacterial activity against […] assessed as inhibition of parasite growth incubated for 6 days by REMA method; assay type: functional
[3] = test system: Mycobacterium tuberculosis; assay: Antimycobacterial activity against Mycobacterium tuberculosis assessed as inhibition of parasite growth at 1 ug/ml incubated for 6 days by REMA method relative to untreated control; assay type: functional; details: 144 h
Trypanosoma brucei = assay: Antitrypanosomal activity against Trypanosoma brucei 427 bloodstream forms assessed as inhibition of parasite growth incubated for 48 hrs by Alamar blue assay; assay type: functional, organism-based; details: Trypanosoma brucei, 427, 48 h
L6 = assay: Cytotoxic activity against rat L6 cells assessed as reduction in cell viability incubated for 6 days by Alamar blue assay; assay type: cell-based; details: L6, 144 h

CC[C@@H](CO)NCCN[C@@H](CC)CO [ETHAMBUTOL]
MIC [1]: 0.11 µM (≈ 0.0225 µg/mL) | Imax [2]: 0% | inhibition at 1 µg/mL [3]: 0%

CO[C@H]1/C=C/O[C@@]2(C)Oc3c(C)c(O)c4c(O)c(c(/C=N/N5CCN(C)CC5)c(O)c4c3C2=O)NC(=O)/C(C)=C\C=C\[C@H](C)[C@H](O)[C@@H](C)[C@@H](O)[C@@H](C)[C@H](OC(C)=O)[C@@H]1C [RIFAMPIN]
MIC [1]: 0.001 µM (≈ 0.000823 µg/mL) | Imax [2]: 54% | inhibition at 1 µg/mL [3]: 13%

OC(COc1ccc(C23CC4CC(C2)CC(c2ccc(OCC(O)CN5CCCCC5)cc2)(C4)C3)cc1)CN1CCCCC1 (stereo not given)
IC50 (Trypanosoma brucei): 250 nM | IC90 (Trypanosoma brucei): 292 nM | IC50 (L6): 270 nM | MIC [1]: 10.4 µM (≈ 6.27 µg/mL) | Imax [2]: 99% | inhibition at 1 µg/mL [3]: 0.17%

CCCCNCC(O)COc1ccc(C23CC4CC(C2)CC(c2ccc(OCC(O)CNCCCC)cc2)(C4)C3)cc1 (stereo not given)
IC50 (Trypanosoma brucei): 93 nM | IC90 (Trypanosoma brucei): 110 nM | IC50 (L6): 550 nM | MIC [1]: 4.14 µM (≈ 2.4 µg/mL) | Imax [2]: 100% | inhibition at 1 µg/mL [3]: 50%

CN1CCN(CCOc2ccc(C3(c4ccc(OCCN5CCN(C)CC5)cc4)C4CC5CC(C4)CC3C5)cc2)CC1
IC50 (Trypanosoma brucei): 51 nM | IC90 (Trypanosoma brucei): 70 nM | IC50 (L6): 330 nM | MIC [1]: 4.59 µM (≈ 2.63 µg/mL) | Imax [2]: 100% | inhibition at 1 µg/mL [3]: 0.04%

CCCCCCNCC(O)COc1ccc(C23CC4CC(C2)CC(c2ccc(OCC(O)CNCCCCCC)cc2)(C4)C3)cc1 (stereo not given)
IC50 (Trypanosoma brucei): 205 nM | IC90 (Trypanosoma brucei): 272 nM | IC50 (L6): 450 nM | MIC [1]: 0.084 µM (≈ 0.0533 µg/mL) | Imax [2]: 0% | inhibition at 1 µg/mL [3]: 0%

CN1CCN(CC(O)COc2ccc(C3(c4ccc(OCC(O)CN5CCN(C)CC5)cc4)C4CC5CC(C4)CC3C5)cc2)CC1 (stereo not given)
IC50 (Trypanosoma brucei): 114 nM | IC90 (Trypanosoma brucei): 138 nM | IC50 (L6): 540 nM | MIC [1]: 8.5 µM (≈ 5.38 µg/mL)

OCCN(CCO)CC(O)COc1ccc(C2(c3ccc(OCC(O)CN(CCO)CCO)cc3)C3CC4CC(C3)CC2C4)cc1 (stereo not given)
MIC [1]: 24.3 µM (≈ 15.6 µg/mL)

CN1CCN(CC(O)COc2ccc(C34CC5CC(C3)CC(c3ccc(OCC(O)CN6CCN(C)CC6)cc3)(C5)C4)cc2)CC1 (stereo not given)
IC50 (Trypanosoma brucei): 176 nM | IC90 (Trypanosoma brucei): 207 nM | IC50 (L6): 260 nM | MIC [1]: 20.5 µM (≈ 13 µg/mL) | Imax [2]: 95% | inhibition at 1 µg/mL [3]: 5%

CSc1ccc(OCc2ncc([N+](=O)[O-])n2C)cc1 [FEXINIDAZOLE]
IC50 (Trypanosoma brucei): 1000 nM

CN(C)CC(O)COc1ccc(C23CC4CC(C2)CC(c2ccc(OCC(O)CN(C)C)cc2)(C4)C3)cc1 (stereo not given)
IC50 (Trypanosoma brucei): 171 nM | IC90 (Trypanosoma brucei): 235 nM | IC50 (L6): 290 nM
